Test results: publication PMC12598866, “A Comparative Study of Virucidal and Virustatic Multivalent Entry Inhibitors” (The Journal of Physical Chemistry. B, 2025)
Read-outs that look alike come from different tables or passages of the source.

Experiments:
[1] = test system: H1N1N09; experiment: Influenza inhibition assay (ICC on MDCK cells); type: cell-based, Influenza A/Netherlands/602/2009 (H1N1); conditions: Influenza A virus, dose–response
[2] = test system: HSV-1; experiment: HSV-1 inhibition assay (plaque reduction on Vero cells); type: cell-based, herpes simplex virus type 1; conditions: Human alphaherpesvirus 1, dose–response
Experimental: The inhibitory effect of compounds on HSV-1 was evaluated by plaque reduction assay. Vero cells were plated 24 h before the experiment in 24-well plates at a density of 10^5 cells/well. Serial dilutions of compounds in DMEM medium (2% FBS, 1% P/S) were prepared, followed by the addition of aliquots of HSV-1 such that the final titer of the virus is […] (with MOI = 0.0005). Compounds/virus mixtures were incubated at 37 °C for 1 h and added to the cells (250 μL/well). Followed by incubation at 37 °C for 1 h, the viral inoculum was removed. The cells were overlaid with DMEM medium containing 1.2% methylcellulose, 2% FBS, and 1% P/S. After 3 days of incubation at 37 °C, 5% CO2, the cells were fixed and stained with 0.1% crystal violet in 20% ethanol, and plaques were counted. Each group of experiments in the inhibition assay was performed in triplicate. The concentration producing a 50% reduction in plaque formation was determined using the Prism 10 software (GraphPad Software, USA) by comparing compound-treated and untreated cells. Infectivity was calculated as the number of plaques in compound-treated cells/number of plaques in untreated cells × 100%.

[3] = target: T1, BSA (Bos taurus, UniProt P02769); experiment: Isothermal titration calorimetry with BSA; type: binding, bovine; conditions: ITC
T1 construct: purchased Sigma-Aldrich
T1 sequence (P02769 25-607): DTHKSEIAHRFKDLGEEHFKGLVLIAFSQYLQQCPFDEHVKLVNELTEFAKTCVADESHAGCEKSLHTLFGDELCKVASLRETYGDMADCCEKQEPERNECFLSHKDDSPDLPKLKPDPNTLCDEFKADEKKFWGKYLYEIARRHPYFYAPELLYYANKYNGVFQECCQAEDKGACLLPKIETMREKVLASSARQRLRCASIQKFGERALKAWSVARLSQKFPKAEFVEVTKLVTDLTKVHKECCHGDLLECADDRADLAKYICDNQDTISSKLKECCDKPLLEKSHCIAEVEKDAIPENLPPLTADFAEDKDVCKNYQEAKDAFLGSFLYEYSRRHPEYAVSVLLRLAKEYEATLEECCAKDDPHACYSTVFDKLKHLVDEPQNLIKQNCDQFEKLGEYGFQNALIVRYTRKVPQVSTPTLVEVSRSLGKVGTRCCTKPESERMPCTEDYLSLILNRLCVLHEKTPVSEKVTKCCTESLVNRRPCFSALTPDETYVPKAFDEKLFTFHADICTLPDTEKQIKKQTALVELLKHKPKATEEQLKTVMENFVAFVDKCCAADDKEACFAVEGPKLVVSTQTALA

[4] = test system: FluB
[5] = test system: H1N1 clinical
[6] = test system: H1N1N09; experiment: Influenza virucidal assay; type: cell-based, Influenza A/Netherlands/602/2009 (H1N1)
[7] = test system: HSV-2; parameters: method as in Zhu et al., 2024 (citation number not given); conditions: earlier paper of the authors; ref Zhu et al., 2024 (citation number not given); cited from earlier work
[8] = test system: HSV-1
[9] = test system: H3N2
[10] = test system: HSV-2; parameters: method as in Zhu et al., 2024 (citation number not given); conditions: earlier paper of the authors on benzene-core MEIs; ref Zhu et al., 2024 (citation number not given); read-out: IC50 against HSV-2; cited from earlier work
[11] = H2O, 25 °C (Table 5), read-out: K d (BSA)

SMILES	IC50 [1] [µM]	IC50 [2] [µM]	N (binding sites, BSA) ([3]; H2O, 25 °C (Table 5))	ΔG (BSA) ([3]; H2O, 25 °C (Table 5))	ΔH (BSA) ([3]; H2O, 25 °C (Table 5))	–ΔTS (BSA) ([3]; H2O, 25 °C (Table 5))	Kd [3, 11] [µM]	-∆TS (BSA) ([3]; PBS, 25 °C (Table S3)) [kcal/mol]	Kd ([3]; PBS, 25 °C (Table S3)) [µM]	N (BSA) ([3]; PBS, 25 °C (Table S3))	∆G (BSA) ([3]; PBS, 25 °C (Table S3)) [kcal/mol]	∆H (BSA) ([3]; PBS, 25 °C (Table S3)) [kcal/mol]	-∆TS (BSA) ([3]; PBS, 37 °C (Table S3)) [kcal/mol]	Kd ([3]; PBS, 37 °C (Table S3)) [µM]	N (BSA) ([3]; PBS, 37 °C (Table S3))	∆G (BSA) ([3]; PBS, 37 °C (Table S3)) [kcal/mol]	∆H (BSA) ([3]; PBS, 37 °C (Table S3)) [kcal/mol]	inhibition mechanism with HSV-2 [7]	further results
O=S(=O)(O)CCCCCCCCCCCSCc1cc2c(cc1CSCCCCCCCCCCCS(=O)(=O)O)OCCOCCOc1cc(CSCCCCCCCCCCCS(=O)(=O)O)c(CSCCCCCCCCCCCS(=O)(=O)O)cc1OCCOCCO2 [C4C11SO3]	15.8 ± 3.1	118 ± 10.4	2.63	–6.81 kcal/mol	–0.934 kcal/mol	–5.88 kcal/mol	10.3	-2.06	124	10	-5.33	-1.58	-7.9	1.64	2.6	-8.21	-0.315	–	–
O=S(=O)(O)CCCCCCCCCCCSCc1cc(CSCCCCCCCCCCCS(=O)(=O)O)cc(CSCCCCCCCCCCCS(=O)(=O)O)c1 [B3C11SO3]	35.2 ± 4.7	139 ± 4.6	–	–7.15 kcal/mol	–9.08 kcal/mol	1.93 kcal/mol	5.82	–	–	–	–	–	–	–	–	–	–	virustatic	Virucidal activity, FluB [4]: S; Virucidal activity, H1N1 clinical [5]: S; Virucidal activity, H1N1N09 [6]: S; Virucidal activity, V-1 [8]: S; Virucidal activity, H3N2 [9]: S; -∆TS (BSA) ([3]; H2O, 25 °C (Table S3)): 1.93 kcal/mol; N (BSA) ([3]; H2O, 25 °C (Table S3)): 1.1; ∆G (BSA) ([3]; H2O, 25 °C (Table S3)): -7.15 kcal/mol; ∆H (BSA) ([3]; H2O, 25 °C (Table S3)): -9.08 kcal/mol; -∆TS (BSA) ([3]; H2O, 37 °C (Table S3)): 0.272 kcal/mol; Kd ([3]; H2O, 37 °C (Table S3)): 4.97 µM; N (BSA) ([3]; H2O, 37 °C (Table S3)): 0.838; ∆G (BSA) ([3]; H2O, 37 °C (Table S3)): -7.53 kcal/mol; ∆H (BSA) ([3]; H2O, 37 °C (Table S3)): -9.78 kcal/mol
O=S(=O)(O)OCCCCCCCCCCCSCc1cc2c(cc1CSCCCCCCCCCCCOS(=O)(=O)O)OCCOCCOc1cc(CSCCCCCCCCCCCOS(=O)(=O)O)c(CSCCCCCCCCCCCOS(=O)(=O)O)cc1OCCOCCO2 [C4C11SO4]	80.9 ± 13.7	22.5 ± 4.2	2.5	–6.07 kcal/mol	–2.73 kcal/mol	–3.34 kcal/mol	35.7	-3.6	161	10	-5.18	-1.58	-4.71	8.47	7.6	-7.2	-2.49	–	–
O=S(=O)(O)OCCCCCCCCCCCSCc1cc(CSCCCCCCCCCCCOS(=O)(=O)O)cc(CSCCCCCCCCCCCOS(=O)(=O)O)c1 [B3C11SO4]	0.9 ± 0.05	43 ± 1.14	–	–7.71 kcal/mol	–5.4 kcal/mol	–2.31 kcal/mol	2.23	-9.86	3.8	3.21	-7.46	2.46	-9.8	1.37	2.58	-8.32	1.48	virucidal	IC50 [10]: 26.2 µM
